# Measurements as given in patent US9133191B2, “Substituted triazine derivatives and use thereof as stimulators of soluble guanylate cyclase” (Bayer Intellectual Property GmbH, priority 2012, dated 2015).
# Assays:
# [1] = system: recombinant guanylate cyclase reporter cell line; experiment: Effect on a recombinant guanylate cyclase reporter cell line; type: cell-based; conditions: read-out: MEC (minimum effective concentration)
# Protocol: B-2. Effect on a Recombinant Guanylate Cyclase Reporter Cell Line
# The cellular effect of the compounds according to the invention is determined using a recombinant guanylate cyclase reporter cell line, as described in F. Wunder et al., Anal. Biochem. 339, 104-112 (2005).
# [2] = system: aorta rings; experiment: Vasorelaxant effect in vitro (phenylephrine-contracted rabbit aorta rings); parameters: species or system Rabbits; conditions: Oryctolagus cuniculus, phenylephrine contraction, concentration needed to reduce the control value by 50%
# Protocol: B-1. Vasorelaxant Effect In Vitro
# Rabbits are stunned by a blow to the neck and exsanguinated. The aorta is removed, freed from adhering tissue and divided into rings of a width of 1.5 mm. The rings are placed individually under an initial tension in 5 ml organ baths with Krebs-Henseleit solution which is at 37° C., is gassed with carbogen and has the following composition (in each case mM): sodium chloride: 119; potassium chloride: 4.8; calcium chloride dihydrate: 1; magnesium sulphate heptahydrate: 1.4; potassium dihydrogenphosphate: 1.2; sodium bicarbonate: 25; glucose: 10. The contractile force is determined with Statham UC2 cells, amplified and digitalized using A/D transducers (DAS-1802 HC, Keithley Instruments Munich), and recorded in parallel on linear recorders. To produce a contraction, phenylephrine is added to the bath cumulatively in increasing concentration. After several control cycles, the substance to be investigated is added in each further run in increasing dosage in each case, and the height of the contraction achieved is compared with the height of the contraction reached in the last preceding run. This is used to calculate the concentration needed to reduce the magnitude of the control value by 50% (IC50 value). The standard administration volume is 5 μl; the DMSO content in the bath solution corresponds to 0.1%.
Compound,minimal effective concentration [1] [µM],IC50 [2] [µM]
"Nc1nc(-c2nn(Cc3ccccc3F)c3ncccc23)nnc1-c1cncc(F)c1 [Example 1, 3-[1-(2-Fluorobenzyl)-1H-pyrazolo[3,4-b]pyridin-3-yl]-6-(5-fluoropyridin-3-yl)-1,2,4-triazine-5-amine]",0.1,
"Cc1ncccc1-c1nnc(-c2nn(Cc3ccccc3F)c3ncccc23)nc1N [Example 2, 3-[1-(2-Fluorobenzyl)-1H-pyrazolo[3,4-b]pyridin-3-yl]-6-(2-methylpyridin-3-yl)-1,2,4-triazine-5-amine]",0.1,
"Cc1noc(C)c1-c1nnc(-c2nn(Cc3ccccc3F)c3ncccc23)nc1N [Example 3, 6-(3,5-Dimethyl-1,2-oxazol-4-yl)-3-[1-(2-fluorobenzyl)-1H-pyrazolo[3,4-b]pyridin-3-yl]-1,2,4-triazine-5-amine]",0.3,
"COc1ccc(-c2nnc(-c3nn(Cc4ccccc4F)c4ncccc34)nc2N)cn1 [Example 4, 3-[1-(2-Fluorobenzyl)-1H-pyrazolo[3,4-b]pyridin-3-yl]-6-(6-methoxypyridin-3-yl)-1,2,4-triazine-5-amine]",0.03,
"Nc1nc(-c2nn(Cc3ccccc3F)c3ncccc23)nnc1-c1ccncc1 [Example 5, 3-[1-(2-Fluorobenzyl)-1H-pyrazolo[3,4-b]pyridin-3-yl]-6-(pyridin-4-yl)-1,2,4-triazine-5-amine]",0.1,
"Cn1cc(-c2nnc(-c3nn(Cc4ccccc4F)c4ncccc34)nc2N)cn1 [Example 6, 3-[1-(2-Fluorobenzyl)-1H-pyrazolo[3,4-b]pyridin-3-yl]-6-(1-methyl-1H-pyrazol-4-yl)-1,2,4-triazine-5-amine]",0.1,
"Nc1nc(-c2nn(Cc3ccccc3F)c3ncccc23)nnc1-c1cccnc1 [Example 7, 3-[1-(2-Fluorobenzyl)-1H-pyrazolo[3,4-b]pyridin-3-yl]-6-(pyridin-3-yl)-1,2,4-triazine-5-amine]",0.1,
"COc1ncccc1-c1nnc(-c2nn(Cc3ccccc3F)c3ncccc23)nc1N [Example 8, 3-[1-(2-Fluorobenzyl)-1H-pyrazolo[3,4-b]pyridin-3-yl]-6-(2-methoxypyridin-3-yl)-1,2,4-triazine-5-amine]",0.1,
"Cc1cc(-c2nnc(-c3nn(Cc4ccccc4F)c4ncccc34)nc2N)ccn1 [Example 9, 3-[1-(2-Fluorobenzyl)-1H-pyrazolo[3,4-b]pyridin-3-yl]-6-(2-methylpyridin-4-yl)-1,2,4-triazine-5-amine]",0.1,
"Nc1nnc(-c2nn(Cc3ccccc3F)c3ncccc23)nc1N [Example 10, 3-[1-(2-Fluorobenzyl)-1H-pyrazolo[3,4-b]pyridin-3-yl]-1,2,4-triazine-5,6-diamine]",0.1,
"CS(=O)(=O)Nc1nnc(-c2nn(Cc3ccccc3F)c3ncccc23)nc1N [Example 11, N-{5-Amino-3-[1-(2-fluorobenzyl)-1H-pyrazolo[3,4-b]pyridin-3-yl]-1,2,4-triazin-6-yl}methanesulphonamide]",1,2.96
"COC(=O)Nc1nnc(-c2nn(Cc3ccccc3F)c3ncccc23)nc1N [Example 12, Methyl {5-amino-3-[1-(2-fluorobenzyl)-1H-pyrazolo[3,4-b]pyridin-3-yl]-1,2,4-triazin-6-yl}carbamate]",0.3,0.112
"Oc1nc(-c2nn(Cc3ccccc3F)c3ncccc23)nnc1C(F)(F)F [Example 13, 3-[1-(2-Fluorobenzyl)-1H-pyrazolo[3,4-b]pyridin-3-yl]-6-(trifluoromethyl)-1,2,4-triazin-5-ol]",3,2.63
"Nc1nc(-c2nn(Cc3ccccc3F)c3ncccc23)nnc1C(F)(F)F [Example 14, 3-[1-(2-Fluorobenzyl)-1H-pyrazolo[3,4-b]pyridin-3-yl]-6-(trifluoromethyl)-1,2,4-triazine-5-amine]",0.03,0.052
"Oc1nc(-c2nn(Cc3ccccc3F)c3ncccc23)nnc1C1CCCC1 [Example 15, 6-Cyclopentyl-3-[1-(2-fluorobenzyl)-1H-pyrazolo[3,4-b]pyridin-3-yl]-1,2,4-triazin-5-ol]",1,1.09
"Nc1nc(-c2nn(Cc3ccccc3F)c3ncccc23)nnc1C1CCCC1 [Example 16, 6-Cyclopentyl-3-[1-(2-fluorobenzyl)-1H-pyrazolo[3,4-b]pyridin-3-yl]-1,2,4-triazine-5-amine]",0.03,0.025
"CCCc1nnc(-c2nn(Cc3ccccc3F)c3ncccc23)nc1O [Example 17, 3-[1-(2-Fluorobenzyl)-1H-pyrazolo[3,4-b]pyridin-3-yl]-6-propyl-1,2,4-triazin-5-ol]",1,
"CCCc1nnc(-c2nn(Cc3ccccc3F)c3ncccc23)nc1N [Example 18, 3-[1-(2-Fluorobenzyl)-1H-pyrazolo[3,4-b]pyridin-3-yl]-6-propyl-1,2,4-triazine-5-amine]",0.1,0.03
"CCc1nnc(-c2nn(Cc3ccccc3F)c3ncccc23)nc1O [Example 19, 6-Ethyl-3-[1-(2-fluorobenzyl)-1H-pyrazolo[3,4-b]pyridin-3-yl]-1,2,4-triazin-5-ol]",1,
"CCc1nnc(-c2nn(Cc3ccccc3F)c3ncccc23)nc1N [Example 20, 6-Ethyl-3-[1-(2-fluorobenzyl)-1H-pyrazolo[3,4-b]pyridin-3-yl]-1,2,4-triazine-5-amine]",0.1,0.03
"CC(C)c1nnc(-c2nn(Cc3ccccc3F)c3ncccc23)nc1O [Example 21, 3-[1-(2-Fluorobenzyl)-1H-pyrazolo[3,4-b]pyridin-3-yl]-6-isopropyl-1,2,4-triazin-5-ol]",0.3,0.916
"CC(C)c1nnc(-c2nn(Cc3ccccc3F)c3ncccc23)nc1N [Example 22, 3-[1-(2-Fluorobenzyl)-1H-pyrazolo[3,4-b]pyridin-3-yl]-6-isopropyl-1,2,4-triazine-5-amine]",0.1,0.027
"CC(F)c1nnc(-c2nn(Cc3ccccc3F)c3ncccc23)nc1N (stereo not shown) [Example 23, 3-[1-(2-Fluorobenzyl)-1H-pyrazolo[3,4-b]pyridin-3-yl]-6-(1-fluoroethyl)-1,2,4-triazine-5-amine]",0.1,0.023
